Experimental data reported in PMC11249953, “c-KIT inhibitors reduce pathology and improve behavior in the Tg(SwDI) model of Alzheimer’s disease” (Life Science Alliance, 2024).

Tests used:
PDGFRb = target: T1, PDGFRb (Homo sapiens, UniProt P09619); test: KINOMEscan competition binding, PDGFRb; details: 10 µM compound; for remaining binding at 10 µM: lower = stronger binding, read-out: PDGFRb %Ctrl @ 10000nM (POC)
T1 construct: DNA label for qPCR read-out (T7 phage fusion or DNA tag); purchased Eurofins DiscoverX Corporation; host or cells: T7 phage in E. coli (BL21-derived) or HEK-293
Method: (§1) The KINOMEscan screening platform (Eurofins DiscoverX Corporation) was performed using active site-directed competition binding assay to quantitatively measure interactions between BK40143 and BK40197 and more than 450 human kinases and disease relevant mutant variants. […] Screening “hits” are identified by measuring the amount of kinase captured in test (BK40143 and BK40197) versus control samples by using a quantitative and ultra-sensitive qRT-PCR method that detects the associated DNA label. BK40143 and BK40197 were screened at 10 µM concentration, and results for primary screen binding interactions were reported as “% Ctrl” (POC), where lower numbers indicate stronger hits and calculated as follows: [test compound signal−positive control signal/negative control signal−positive control signal]×100
(§2) negative control = DMSO (100% Ctrl)
(§3) positive control = control compound (0% Ctrl)
(§4) Based on screening data from of profiled compounds, a proportional relationship between primary screening results and corresponding compound/target affinities can be described as binding constants (Kd values) for the indicated ranges of POC values with tighter binding (higher affinity) interactions associated with lower POC values and weaker binding (lower affinity) associated with higher POC values. Briefly, kinase-tagged T7 phage strains were grown in parallel in 24-well blocks in an E. coli host derived from the BL21 strain. E. coli were grown to log-phase and infected with T7 phage from a frozen stock (multiplicity of infection = 0.4) and incubated with shaking at 32°C until lysis (90–150 min). The lysates were centrifuged (6,000g) and filtered (0.2 μm) to remove cell debris. The remaining kinases were produced in HEK-293 cells and subsequently tagged with DNA for qRT-PCR detection. Streptavidin-coated magnetic beads were treated with biotinylated small molecule ligands for 30 min at RT to generate affinity resins for kinase assays. The liganded beads were blocked with excess biotin and washed with blocking buffer (1% BSA, 0.05% Tween 20, 1 mM DTT; SeaBlock [Pierce]) to remove unbound ligand and to reduce non-specific phage binding. Binding reactions were assembled by combining kinases, liganded affinity beads, and test compounds in 1x binding buffer (20% 0.17x PBS, 0.05% Tween 20, 6 mM DTT; SeaBlock). Test compounds were prepared as 100x stocks in 100% DMSO and directly diluted into the assay. All reactions were performed in polypropylene 384-well plates in a final volume of 0.02 ml. The assay plates were incubated at RT with shaking for 1 h and the affinity beads were washed with wash buffer (1x PBS, 0.05% Tween 20). […] The kinase concentration in the eluates was measured by qRT-PCR.

PDGFRa = target: T2, PDGFRa (Homo sapiens, UniProt P16234); test: KINOMEscan competition binding, PDGFRa; details: 10 µM compound; for remaining binding at 10 µM: lower = stronger binding, read-out: PDGFRa %Ctrl @ 10000nM (POC)
T2 construct: DNA label for qPCR read-out (T7 phage fusion or DNA tag); purchased Eurofins DiscoverX Corporation; host or cells: T7 phage in E. coli (BL21-derived) or HEK-293
T2 sequence (P16234 24-1089): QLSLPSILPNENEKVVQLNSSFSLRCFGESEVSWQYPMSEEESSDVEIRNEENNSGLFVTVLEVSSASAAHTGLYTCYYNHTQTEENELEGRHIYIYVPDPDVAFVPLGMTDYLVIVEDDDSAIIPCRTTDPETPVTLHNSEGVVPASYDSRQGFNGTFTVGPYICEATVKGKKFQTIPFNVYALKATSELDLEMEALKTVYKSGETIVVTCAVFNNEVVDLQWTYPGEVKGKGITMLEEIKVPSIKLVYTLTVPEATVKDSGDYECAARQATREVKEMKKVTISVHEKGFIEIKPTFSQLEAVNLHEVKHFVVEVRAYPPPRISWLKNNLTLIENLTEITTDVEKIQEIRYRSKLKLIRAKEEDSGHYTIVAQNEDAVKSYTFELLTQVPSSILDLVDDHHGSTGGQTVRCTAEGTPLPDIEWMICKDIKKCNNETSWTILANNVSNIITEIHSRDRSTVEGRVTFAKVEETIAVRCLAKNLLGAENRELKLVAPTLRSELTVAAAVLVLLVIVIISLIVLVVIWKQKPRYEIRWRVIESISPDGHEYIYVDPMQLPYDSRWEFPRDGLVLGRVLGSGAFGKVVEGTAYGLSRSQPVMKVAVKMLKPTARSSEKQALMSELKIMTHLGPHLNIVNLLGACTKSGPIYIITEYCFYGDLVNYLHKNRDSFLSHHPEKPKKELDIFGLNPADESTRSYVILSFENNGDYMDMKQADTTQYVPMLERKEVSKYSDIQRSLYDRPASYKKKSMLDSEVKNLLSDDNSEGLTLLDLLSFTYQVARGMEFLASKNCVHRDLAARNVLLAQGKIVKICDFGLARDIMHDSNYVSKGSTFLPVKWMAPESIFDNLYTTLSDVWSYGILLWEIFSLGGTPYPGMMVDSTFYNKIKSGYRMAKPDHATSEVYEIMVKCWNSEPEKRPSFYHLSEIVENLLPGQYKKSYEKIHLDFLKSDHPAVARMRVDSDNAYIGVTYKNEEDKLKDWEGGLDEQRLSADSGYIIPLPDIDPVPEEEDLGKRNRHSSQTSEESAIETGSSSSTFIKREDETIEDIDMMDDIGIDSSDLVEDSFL
Method: as §1, §2, §3, §4

p-ABL1 = target: T3, p-ABL1 (Homo sapiens, UniProt P00519); test: KINOMEscan competition binding, p-ABL1; details: 10 µM compound; for remaining binding at 10 µM: lower = stronger binding, read-out: p-ABL1 %Ctrl @ 10000nM (POC)
T3 construct: DNA label for qPCR read-out (T7 phage fusion or DNA tag); purchased Eurofins DiscoverX Corporation; host or cells: T7 phage in E. coli (BL21-derived) or HEK-293
T3 sequence (P00519 whole entry, the tested form may be a part): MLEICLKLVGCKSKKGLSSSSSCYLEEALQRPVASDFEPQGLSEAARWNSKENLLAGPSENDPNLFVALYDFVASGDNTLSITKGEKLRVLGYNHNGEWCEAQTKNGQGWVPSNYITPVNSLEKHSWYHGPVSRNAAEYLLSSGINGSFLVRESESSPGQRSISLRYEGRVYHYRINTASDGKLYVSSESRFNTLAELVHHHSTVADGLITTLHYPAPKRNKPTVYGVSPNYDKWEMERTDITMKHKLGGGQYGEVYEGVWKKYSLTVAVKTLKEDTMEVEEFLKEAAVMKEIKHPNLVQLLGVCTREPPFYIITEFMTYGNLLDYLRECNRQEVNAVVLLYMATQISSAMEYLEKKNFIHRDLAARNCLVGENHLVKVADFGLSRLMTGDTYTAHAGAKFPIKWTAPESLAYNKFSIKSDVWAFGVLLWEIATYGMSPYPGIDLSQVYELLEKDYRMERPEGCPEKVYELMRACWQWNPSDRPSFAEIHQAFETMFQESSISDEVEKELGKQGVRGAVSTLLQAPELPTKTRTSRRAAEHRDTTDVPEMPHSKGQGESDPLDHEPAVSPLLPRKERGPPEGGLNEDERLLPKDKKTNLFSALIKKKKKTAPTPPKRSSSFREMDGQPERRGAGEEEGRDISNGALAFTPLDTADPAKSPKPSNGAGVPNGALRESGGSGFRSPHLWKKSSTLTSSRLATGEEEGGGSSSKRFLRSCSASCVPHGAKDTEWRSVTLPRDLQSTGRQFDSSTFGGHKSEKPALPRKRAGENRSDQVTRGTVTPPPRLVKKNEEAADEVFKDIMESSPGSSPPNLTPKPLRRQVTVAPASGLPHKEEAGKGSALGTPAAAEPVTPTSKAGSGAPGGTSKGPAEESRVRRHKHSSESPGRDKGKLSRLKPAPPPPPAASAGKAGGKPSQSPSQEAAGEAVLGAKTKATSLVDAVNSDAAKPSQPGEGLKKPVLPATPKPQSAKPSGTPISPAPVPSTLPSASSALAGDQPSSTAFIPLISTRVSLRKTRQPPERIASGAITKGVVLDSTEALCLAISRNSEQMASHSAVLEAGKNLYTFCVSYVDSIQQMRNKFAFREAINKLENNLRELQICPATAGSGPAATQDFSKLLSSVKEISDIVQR
Method: as §1, §2, §3, §4

CIT = target: T4, CIT (Homo sapiens, UniProt O14578); test: KINOMEscan competition binding, CIT; details: 10 µM compound; for remaining binding at 10 µM: lower = stronger binding, read-out: CIT %Ctrl @ 10000nM (POC)
T4 construct: DNA label for qPCR read-out (T7 phage fusion or DNA tag); purchased Eurofins DiscoverX Corporation; host or cells: T7 phage in E. coli (BL21-derived) or HEK-293
Method: as §1, §2, §3, §4

FLT3 = target: T5, FLT3 (Homo sapiens, UniProt P36888); test: KINOMEscan competition binding, FLT3; details: 10 µM compound; for remaining binding at 10 µM: lower = stronger binding, read-out: FLT3 %Ctrl @ 10000nM (POC)
T5 construct: DNA label for qPCR read-out (T7 phage fusion or DNA tag); purchased Eurofins DiscoverX Corporation; host or cells: T7 phage in E. coli (BL21-derived) or HEK-293
T5 sequence (P36888 27-993): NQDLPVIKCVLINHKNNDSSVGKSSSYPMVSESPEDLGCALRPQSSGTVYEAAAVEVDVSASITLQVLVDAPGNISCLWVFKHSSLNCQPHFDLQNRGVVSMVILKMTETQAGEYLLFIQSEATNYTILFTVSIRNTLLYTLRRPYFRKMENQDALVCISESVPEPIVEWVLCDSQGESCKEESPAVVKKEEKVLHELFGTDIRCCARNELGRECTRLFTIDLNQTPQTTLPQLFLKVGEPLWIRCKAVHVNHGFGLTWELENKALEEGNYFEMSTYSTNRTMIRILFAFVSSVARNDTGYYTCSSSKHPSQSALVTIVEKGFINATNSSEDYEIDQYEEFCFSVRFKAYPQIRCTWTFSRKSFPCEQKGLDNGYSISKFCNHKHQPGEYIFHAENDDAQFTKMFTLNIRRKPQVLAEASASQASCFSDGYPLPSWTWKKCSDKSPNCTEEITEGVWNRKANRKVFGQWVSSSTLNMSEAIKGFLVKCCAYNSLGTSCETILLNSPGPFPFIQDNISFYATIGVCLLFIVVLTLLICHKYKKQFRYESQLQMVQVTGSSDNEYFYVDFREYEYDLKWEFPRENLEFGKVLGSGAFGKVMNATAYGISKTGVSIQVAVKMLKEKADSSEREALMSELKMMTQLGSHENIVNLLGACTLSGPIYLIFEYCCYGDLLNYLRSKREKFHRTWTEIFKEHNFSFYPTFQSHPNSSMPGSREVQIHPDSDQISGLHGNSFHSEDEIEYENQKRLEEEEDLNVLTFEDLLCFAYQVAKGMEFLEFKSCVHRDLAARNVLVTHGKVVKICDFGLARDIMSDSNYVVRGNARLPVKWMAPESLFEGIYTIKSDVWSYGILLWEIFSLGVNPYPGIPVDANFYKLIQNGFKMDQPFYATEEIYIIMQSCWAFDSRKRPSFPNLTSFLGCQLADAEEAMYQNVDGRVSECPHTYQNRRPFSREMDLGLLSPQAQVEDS
Method: as §1, §2, §3, §4

MAP4K4 = target: T6, MAP4K4 (Homo sapiens, UniProt O95819); test: KINOMEscan competition binding, MAP4K4; details: 10 µM compound; for remaining binding at 10 µM: lower = stronger binding, read-out: MAP4K4 %Ctrl @ 10000nM (POC)
T6 construct: DNA label for qPCR read-out (T7 phage fusion or DNA tag); purchased Eurofins DiscoverX Corporation; host or cells: T7 phage in E. coli (BL21-derived) or HEK-293
T6 sequence (O95819 whole entry, the tested form may be a part): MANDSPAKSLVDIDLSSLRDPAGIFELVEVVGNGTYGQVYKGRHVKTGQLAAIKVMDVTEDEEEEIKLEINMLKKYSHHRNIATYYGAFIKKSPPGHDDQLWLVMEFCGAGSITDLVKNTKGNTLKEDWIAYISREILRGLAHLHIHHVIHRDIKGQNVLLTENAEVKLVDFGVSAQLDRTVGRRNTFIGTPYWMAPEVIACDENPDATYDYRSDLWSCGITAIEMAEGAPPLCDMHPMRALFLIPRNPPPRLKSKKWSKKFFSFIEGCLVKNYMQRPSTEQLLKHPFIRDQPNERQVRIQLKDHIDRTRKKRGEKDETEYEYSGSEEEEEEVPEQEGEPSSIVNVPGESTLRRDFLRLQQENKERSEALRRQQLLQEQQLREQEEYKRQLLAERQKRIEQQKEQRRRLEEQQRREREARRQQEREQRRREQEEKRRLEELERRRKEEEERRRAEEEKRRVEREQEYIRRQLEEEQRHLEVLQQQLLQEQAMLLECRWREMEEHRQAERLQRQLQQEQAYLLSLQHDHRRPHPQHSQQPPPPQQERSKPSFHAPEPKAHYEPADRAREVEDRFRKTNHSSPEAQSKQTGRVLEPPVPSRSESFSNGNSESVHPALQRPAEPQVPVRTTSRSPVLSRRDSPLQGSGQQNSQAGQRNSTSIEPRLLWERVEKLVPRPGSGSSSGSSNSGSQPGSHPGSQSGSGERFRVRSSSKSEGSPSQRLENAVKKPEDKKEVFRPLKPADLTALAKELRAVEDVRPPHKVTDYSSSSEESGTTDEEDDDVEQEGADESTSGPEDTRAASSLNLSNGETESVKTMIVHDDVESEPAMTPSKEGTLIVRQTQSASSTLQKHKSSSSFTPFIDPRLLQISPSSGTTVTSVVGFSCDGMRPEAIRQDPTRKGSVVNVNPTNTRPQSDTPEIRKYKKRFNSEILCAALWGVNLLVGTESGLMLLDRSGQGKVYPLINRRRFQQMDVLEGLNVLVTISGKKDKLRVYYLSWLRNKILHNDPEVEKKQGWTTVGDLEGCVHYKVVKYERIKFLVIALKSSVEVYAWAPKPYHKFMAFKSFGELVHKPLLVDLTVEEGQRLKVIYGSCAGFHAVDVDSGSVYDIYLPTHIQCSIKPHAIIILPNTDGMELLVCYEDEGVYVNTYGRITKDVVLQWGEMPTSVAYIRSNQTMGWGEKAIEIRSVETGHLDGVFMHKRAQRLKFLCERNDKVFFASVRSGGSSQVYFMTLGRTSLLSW
Method: as §1, §2, §3, §4

ABL1 = target: T7, ABL1 (Homo sapiens, UniProt P00519); test: KINOMEscan competition binding, ABL1; details: 10 µM compound; for remaining binding at 10 µM: lower = stronger binding, read-out: ABL1 %Ctrl @ 10000nM
T7 construct: DNA label for qPCR read-out (T7 phage fusion or DNA tag); purchased Eurofins DiscoverX Corporation; host or cells: T7 phage in E. coli (BL21-derived) or HEK-293
T7 sequence (P00519 whole entry, the tested form may be a part): as the sequence (P00519 whole entry, the tested form may be a part) above
Method: as §1, §2, §3, §4

FYN = target: T8, FYN (Homo sapiens, UniProt P06241); test: KINOMEscan competition binding, FYN; details: 10 µM compound; for remaining binding at 10 µM: lower = stronger binding, read-out: FYN %Ctrl @ 10000nM
T8 construct: DNA label for qPCR read-out (T7 phage fusion or DNA tag); purchased Eurofins DiscoverX Corporation; host or cells: T7 phage in E. coli (BL21-derived) or HEK-293
T8 sequence (P06241 whole entry, the tested form may be a part): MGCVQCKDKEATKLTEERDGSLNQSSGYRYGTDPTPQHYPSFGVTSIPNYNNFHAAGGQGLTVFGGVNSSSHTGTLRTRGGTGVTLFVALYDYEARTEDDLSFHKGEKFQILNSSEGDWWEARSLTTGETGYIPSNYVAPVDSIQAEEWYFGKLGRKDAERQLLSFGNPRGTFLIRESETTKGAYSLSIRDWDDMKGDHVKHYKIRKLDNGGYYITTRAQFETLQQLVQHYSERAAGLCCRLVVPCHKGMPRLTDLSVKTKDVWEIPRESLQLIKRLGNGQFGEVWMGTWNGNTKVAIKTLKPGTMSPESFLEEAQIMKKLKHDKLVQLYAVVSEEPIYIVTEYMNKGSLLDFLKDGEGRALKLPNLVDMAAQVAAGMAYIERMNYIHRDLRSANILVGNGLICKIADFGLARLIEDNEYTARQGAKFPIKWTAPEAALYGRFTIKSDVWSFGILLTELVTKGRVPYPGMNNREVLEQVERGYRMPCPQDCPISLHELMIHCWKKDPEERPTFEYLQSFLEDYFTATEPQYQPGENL
Method: as §1, §2, §3, §4

DDR1 = target: T9, DDR1 (Homo sapiens, UniProt Q08345); test: KINOMEscan competition binding, DDR1; details: 10 µM compound; for remaining binding at 10 µM: lower = stronger binding, read-out: DDR1 %Ctrl @ 10000nM
T9 construct: DNA label for qPCR read-out (T7 phage fusion or DNA tag); purchased Eurofins DiscoverX Corporation; host or cells: T7 phage in E. coli (BL21-derived) or HEK-293
T9 sequence (Q08345 19-913): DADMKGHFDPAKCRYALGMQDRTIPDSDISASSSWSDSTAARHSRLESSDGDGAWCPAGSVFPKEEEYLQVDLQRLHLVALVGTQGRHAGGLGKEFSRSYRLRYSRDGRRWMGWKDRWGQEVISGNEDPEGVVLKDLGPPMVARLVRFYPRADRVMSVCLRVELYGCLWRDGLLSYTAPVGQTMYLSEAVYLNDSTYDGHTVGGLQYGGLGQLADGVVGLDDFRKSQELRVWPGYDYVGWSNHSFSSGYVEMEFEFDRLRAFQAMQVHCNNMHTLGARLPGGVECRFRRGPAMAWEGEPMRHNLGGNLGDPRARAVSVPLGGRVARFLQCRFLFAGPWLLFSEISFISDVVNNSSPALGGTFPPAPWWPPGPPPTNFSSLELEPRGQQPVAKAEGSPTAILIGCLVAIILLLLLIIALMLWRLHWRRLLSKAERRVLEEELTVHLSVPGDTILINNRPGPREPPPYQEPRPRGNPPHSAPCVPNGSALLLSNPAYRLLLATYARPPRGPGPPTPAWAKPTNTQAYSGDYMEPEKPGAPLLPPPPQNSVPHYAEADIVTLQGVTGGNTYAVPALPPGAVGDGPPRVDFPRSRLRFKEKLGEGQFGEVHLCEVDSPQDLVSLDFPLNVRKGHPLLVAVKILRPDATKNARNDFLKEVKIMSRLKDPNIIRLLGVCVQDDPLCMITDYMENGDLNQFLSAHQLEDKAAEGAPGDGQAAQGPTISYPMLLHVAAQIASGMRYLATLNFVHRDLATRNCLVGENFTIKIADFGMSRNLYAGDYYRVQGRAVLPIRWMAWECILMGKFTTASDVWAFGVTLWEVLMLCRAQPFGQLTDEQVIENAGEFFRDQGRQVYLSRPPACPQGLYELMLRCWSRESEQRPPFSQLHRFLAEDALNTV
Method: as §1, §2, §3, §4

MTOR = target: T10, MTOR (Homo sapiens, UniProt P42345); test: KINOMEscan competition binding, MTOR; details: 10 µM compound; for remaining binding at 10 µM: lower = stronger binding, read-out: MTOR %Ctrl @ 10000nM (POC)
T10 construct: DNA label for qPCR read-out (T7 phage fusion or DNA tag); purchased Eurofins DiscoverX Corporation; host or cells: T7 phage in E. coli (BL21-derived) or HEK-293
Method: as §1, §2, §3, §4

SMILES: Cc1cccc(-c2cc3nccc(Nc4ccccc4)c3s2)c1 [BK40143]
- inhibition at 10 µM (PDGFRb): 99.9%
- remaining binding at 10 µM (PDGFRb): 0.1%
- inhibition at 10 µM (PDGFRa): 98.1%
- remaining binding at 10 µM (PDGFRa): 1 to 10%
- inhibition at 10 µM (p-ABL1): 97.5%
- remaining binding at 10 µM (p-ABL1): 2.5%
- inhibition at 10 µM (CIT): 97.2%
- remaining binding at 10 µM (CIT): 2.8%
- inhibition at 10 µM (FLT3): 95.3%
- remaining binding at 10 µM (FLT3): 4.7%
- inhibition at 10 µM (MAP4K4): 93.2%
- remaining binding at 10 µM (MAP4K4): 6.8%
- inhibition at 10 µM (ABL1): 90%
- remaining binding at 10 µM (ABL1): 10%
- inhibition at 10 µM (FYN): 90%
- remaining binding at 10 µM (FYN): 10%
- inhibition at 10 µM (DDR1): 69%
- remaining binding at 10 µM (DDR1): 31%
- inhibition at 10 µM (MTOR): 0%
- remaining binding at 10 µM (MTOR): 100%

SMILES: Cc1cccc(-c2cc3nccc(N4CCOCC4)c3s2)c1 [BK40197]
- inhibition at 10 µM (PDGFRb): 98.7%
- remaining binding at 10 µM (PDGFRb): 1.3%
- inhibition at 10 µM (PDGFRa): 74%
- remaining binding at 10 µM (PDGFRa): 26%
- inhibition at 10 µM (p-ABL1): 63%
- remaining binding at 10 µM (p-ABL1): 37%
- inhibition at 10 µM (CIT): 19%
- remaining binding at 10 µM (CIT): 81%
- inhibition at 10 µM (FLT3): 89%
- remaining binding at 10 µM (FLT3): 11%
- inhibition at 10 µM (MAP4K4): 60%
- remaining binding at 10 µM (MAP4K4): 40%
- inhibition at 10 µM (ABL1): 60%
- remaining binding at 10 µM (ABL1): 40%
- inhibition at 10 µM (FYN): 44%
- remaining binding at 10 µM (FYN): 56%
- inhibition at 10 µM (DDR1): 0%
- remaining binding at 10 µM (DDR1): 100%
- inhibition at 10 µM (MTOR): 90.7%
- remaining binding at 10 µM (MTOR): 9.3%
